# Values of other authors in patent US20160235839A1, “CALCIUM FLUORIDE COMPOSITIONS” (priority 2013, published 2016).
# System: chicken red blood cells
# Conditions: no cholesterol
substance,measurement,value
QS21,Hemolytic activity of QS21 by itself,too hemolytic
